The test system of data set [1] is LAD2. The experiment in a line: Anti-pseudoallergic activity in human LAD2 cells assessed as inhibition of SP-induced histamine release preincubated for 30 mins followed by SP addition and measured after 30 mins by UHPLC-ESI-MS/MS analysis. Format: functional, cell-based. The conditions noted are these: dose 1-10 µM, time 60.0 min.
Data set [2] is described as follows: Cytotoxicity against human LAD2 cells assessed as cell viability incubated for 24 hrs by CCK8 assay relative to control. Format: toxicity, cell-based. The settings on record: read-out: Activity. A general note: Tetrazolium dyes change colour on reduction, which living cells bring about.
The subject of data set [3] is LAD2. The experiment in a line: Anti-pseudoallergic activity in human LAD2 cells assessed as inhibition of SP-induced beta-aminohexosidase release at 50 uM preincubated for 30 mins followed by SP addition and measured after 30 mins by absorbance based microplate reader analysis relative to control. The data set is classed as functional. The settings on record: LAD2, 1 h, time 60 min.

Data set [4] relates to LAD2. The experiment in a line: Anti-pseudoallergic activity in human LAD2 cells assessed as inhibition of SP-induced beta-aminohexosidase release preincubated for 30 mins followed by SP addition and measured after 30 mins by absorbance based microplate reader analysis. Format: functional, cell-based.
Data set [5] concerns LAD2. The data set can be described thus: Anti-pseudoallergic activity in human LAD2 cells assessed as inhibition of C48/80-induced beta-aminohexosidase release preincubated for 30 mins followed by SP addition and measured after 30 mins by absorbance based microplate reader analysis. The data set is classed as functional, cell-based.
The test system of data set [6] is LAD2. The data set can be described thus: Anti-pseudoallergic activity in human LAD2 cells assessed as inhibition of SP-induced TNF-alpha release incubated for 6 hrs by ELISA analysis. The data set is classed as functional, cell-based. The conditions noted are these: dose 1-10 µM. (In general: In an ELISA, binding on a coated surface is turned into a signal by an enzyme label.)

Data set [7] concerns Mus musculus. The experiment in a line: Anti-pseudoallergic activity in C48/80-induced male C57BL/6 mouse model assessed as reduction in paw thickness at 0.5 to 1.0 mg/mL administered via gavage for 2 hrs by vernier caliper based analysis. The data set is classed as functional, organism-based. The conditions noted are these: dose 0.5-1 mg/ml.
Data set [8] deals with Mus musculus. The experiment in a line: Anti-pseudoallergic activity in C48/80-induced male C57BL/6 mouse model assessed as reduction in evans blue extravasation at 1.0 mg/mL administered via gavage for 2 hrs by absorbance based assay. The data set is classed as functional, organism-based.
In data set [9] the test system is Mus musculus. The data set can be described thus: Anti-pseudoallergic activity in C48/80-induced male C57BL/6 mouse model assessed as reduction in mast cell degranulation at 1 mg/mL administered via gavage for 2 hrs by Toluidine blue staining based analysis. Format: functional, organism-based.
Data set [10] concerns Mus musculus. The data set can be described thus: Anti-pseudoallergic activity in C48/80-induced male C57BL/6 mouse model assessed as reduction in serum histamine release at 1 to 10 mg/kg, preadministered with compound via gavage for 2 hrs followed by C48/80 administration and measured after 1 hrs by UHPLC-ESI-MS/MS analysis. Format: functional, organism-based. The conditions noted are these: dose 1-10 mg/kg, time 3.0 hrs.

Data set [11] concerns the target T1, Mas-related G-protein coupled receptor member X2 (Homo sapiens) (UniProt Q96LB1).
T1 sequence (whole entry): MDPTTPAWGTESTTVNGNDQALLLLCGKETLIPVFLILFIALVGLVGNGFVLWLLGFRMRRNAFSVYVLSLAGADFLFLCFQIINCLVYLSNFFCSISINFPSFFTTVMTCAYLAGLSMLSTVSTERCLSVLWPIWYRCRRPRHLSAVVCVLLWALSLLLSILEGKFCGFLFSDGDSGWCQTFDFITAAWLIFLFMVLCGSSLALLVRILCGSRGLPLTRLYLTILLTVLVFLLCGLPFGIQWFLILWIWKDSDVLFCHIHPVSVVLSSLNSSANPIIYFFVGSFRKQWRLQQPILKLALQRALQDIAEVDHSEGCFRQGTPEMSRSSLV
The data set can be described thus: Competitive binding affinity to MrgX2 (unknown origin) assessed as retention time of compound at 2 x 10^-8mol/L by zonal elution method (reference value: 58.73 min). The settings on record: dose 2.0 10^-8mol/L.

Data set [12] addresses T1, Mas-related G-protein coupled receptor member X2 (Homo sapiens). The experiment in a line: Competitive binding affinity to MrgX2 (unknown origin) assessed as retention time of compound at 4 x 10^-8mol/L by zonal elution method (reference value: 58.73 min). The settings on record: dose 4.0 10^-8mol/L.
The target is the same in data set [13]. The data set can be described thus: Competitive binding affinity to MrgX2 (unknown origin) assessed as retention time of compound at 8 x 10^-8mol/L by zonal elution method (reference value: 58.73 min). The settings on record: dose 8.0 10^-8mol/L.
Data set [14] has the same target. The data set can be described thus: Competitive binding affinity to MrgX2 (unknown origin) assessed as retention time of compound at 1 x 10^-7mol/L by zonal elution method (reference value: 58.73 min). The conditions noted are these: dose 1.0 10^-7mol/L.

Activity calls are given as the source filed them. The calls are words filed in the database; no cut-off is given here.

The term inhibition denotes how much of the control response was suppressed. Usually IC50 stands for the point on the concentration scale where inhibition reaches its midpoint.

`O=C(CSc1nnc(-c2ccccc2)c(-c2ccccc2)n1)Nc1ccc(Cl)cc1Cl`: the Activity entry in data set [1], in [4] (time 60.0 min), in data set [5] (time 60.0 min) and in data set [6] was “Dose-dependent-effect” in each case. Also, the viability at 24 h in data set [2] was greater than 85%. The inhibition at 50 µM in data set [3] is 75%. Besides, the IC50 in [4] worked out at 4.9 µM; in data set [5] it was 6.18 µM. The outcome in data set [7], in data set [8], in [9] and in data set [10] was Active.

For the molecule `CN(C)[C@@H]1CCN(c2cc(-c3ccccc3)nc3ccnn23)C1`, the Retention time in [11] was 56.1 min; in data set [12], 46.3 min; in [13], 29.2 min; in [14] it was 23.7 min.

Values taken from ChEMBL document CHEMBL6115018, “MrgX2-Targeting Ligand Screen for Antipseudoallergic Agents by Immobilized His-Tag-Fused Protein Technology” (J Med Chem, 2025).
